The source of these data is PubChem BioAssay (NCI).

Test systems include EKVX NSCLC; RXF 393 renal; COLO 205 colon; 786-0 renal; NCI/ADR-RES ovarian; U251 CNS; OVCAR-4 ovarian; MDA-MB-435; CCRF-CEM leukemia; HL-60(TB) leukemia; UACC-62 melanoma; A498 renal.
What all share (test): growth of human tumour cells (NCI), 48 h

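Compound exposure: 48 hours, 5 concentrations, 96-well plates. GI50 = concentration required for 50% inhibition of growth. At the TGI there is no net growth.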

For `Cc1ccc2c(c1)nc1n2C(c2c(F)cccc2F)SC1` (stereo unspecified), the TGI with EKVX NSCLC was above 100 µM; in the test on RXF 393 renal, 96.4 µM; with COLO 205 colon, above 100 µM; with 786-0 renal, above 100 µM; in the test with NCI/ADR-RES ovarian it was above 100 µM; in the test with U251 CNS it was above 100 µM. The TGI with OVCAR-4 ovarian, in the test with MDA-MB-435 and in the test on CCRF-CEM leukemia was above 100 µM in each case.

As for `COc1ccc(C(=O)/C=C/c2ccc(OCCCCCCCCCCOc3ccc(/C=C/C(=O)c4ccc(OC)cc4)cc3)cc2)cc1`, the TGI in the test with EKVX NSCLC, with HL-60(TB) leukemia, in the test on RXF 393 renal, with COLO 205 colon, in the test with 786-0 renal and with NCI/ADR-RES ovarian was above 100 µM throughout. Also, the TGI in the test with U251 CNS, in the test with OVCAR-4 ovarian, in the test on UACC-62 melanoma, in the test on MDA-MB-435 and with CCRF-CEM leukemia was above 100 µM throughout.

For `COC(=O)C1=CO[C@@H](C)[C@@H]2Cn3ccc4c5ccccc5nc-4c3C[C@H]12`, the TGI with EKVX NSCLC, with RXF 393 renal, in the test with COLO 205 colon, in the test with 786-0 renal, in the test with U251 CNS and in the test on OVCAR-4 ovarian was above 100 µM throughout. The TGI in the test on UACC-62 melanoma, with A498 renal and with CCRF-CEM leukemia was above 100 µM throughout.

For `O=S1(=O)c2ccccc2N(O)C2=NCCN21`, the TGI with EKVX NSCLC, in the test on HL-60(TB) leukemia, in the test with RXF 393 renal, in the test with COLO 205 colon, in the test with 786-0 renal and in the test with U251 CNS was above 100 µM each time. Moreover, the TGI in the test on UACC-62 melanoma, in the test on A498 renal and with CCRF-CEM leukemia was above 100 µM throughout.

Regarding `CC(C)(C)C1=CC(=N/N=c2\scc(-c3ccccc3)n2-c2ccccc2)C=C(C(C)(C)C)C1=O`, the TGI with EKVX NSCLC, in the test on HL-60(TB) leukemia, with RXF 393 renal, in the test with COLO 205 colon, with 786-0 renal and in the test on U251 CNS was above 100 µM in each case. The TGI with OVCAR-4 ovarian, with UACC-62 melanoma, in the test on A498 renal and with CCRF-CEM leukemia was above 100 µM throughout.

For `FC1(F)ON2CCc3ccccc3C2[C@H]1c1ccccc1` (stereo partly specified), the GI50 in the test with EKVX NSCLC, in the test on HL-60(TB) leukemia, in the test on COLO 205 colon, in the test on OVCAR-4 ovarian, with UACC-62 melanoma and with A498 renal was above 100 µM each time. The GI50 in the test on MDA-MB-435 is above 100 µM. Moreover, the TGI in the test on EKVX NSCLC was above 100 µM; in the test on HL-60(TB) leukemia it was above 100 µM; in the test with RXF 393 renal it was above 100 µM; with COLO 205 colon, above 100 µM; in the test on 786-0 renal it was 96.7 µM; with NCI/ADR-RES ovarian, above 100 µM. For the same compound, the TGI with U251 CNS, in the test on OVCAR-4 ovarian, in the test with UACC-62 melanoma, with A498 renal, in the test on MDA-MB-435 and with CCRF-CEM leukemia was above 100 µM in each case.

With `O=C1CCCCCCC2=C1C(Sc1ccccc1)CC2` (stereo unspecified), the TGI is 85.2 µM in the test with EKVX NSCLC; 36.2 µM with HL-60(TB) leukemia; 48.6 µM in the test with RXF 393 renal; above 100 µM in the test with COLO 205 colon; 33 µM with 786-0 renal; above 100 µM in the test on U251 CNS. Moreover, the TGI in the test on OVCAR-4 ovarian was above 100 µM; in the test with UACC-62 melanoma it was above 100 µM; with CCRF-CEM leukemia, 67.8 µM.

As for `COc1ccc(S(=O)(=O)Nc2ccc(-c3csc(N4C(=O)/C(=C/c5ccccc5[N+](=O)[O-])N=C4c4ccccc4)n3)cc2)cc1Cl`, the TGI in the test on HL-60(TB) leukemia, with RXF 393 renal, in the test with COLO 205 colon, in the test with 786-0 renal, with NCI/ADR-RES ovarian and in the test with U251 CNS was above 100 µM in each case. In addition, the TGI in the test on OVCAR-4 ovarian was above 100 µM; in the test on UACC-62 melanoma, above 100 µM; with A498 renal it was 59.8 µM; in the test with MDA-MB-435 it was above 100 µM.

Turning to `COC(=O)CCc1ccc(CCC(=O)OC)cc1`, the TGI with EKVX NSCLC, in the test on HL-60(TB) leukemia, in the test with RXF 393 renal, with 786-0 renal, in the test with NCI/ADR-RES ovarian and in the test with U251 CNS was above 100 µM throughout. Besides, the TGI in the test with OVCAR-4 ovarian, in the test with A498 renal, in the test on MDA-MB-435 and with CCRF-CEM leukemia was above 100 µM in each case.

For `CCOC(=O)C1(C(=O)OCC)C(C(C)(C)C)=C(C)c2ccccc21`, the TGI in the test with EKVX NSCLC turned out to be 56.2 µM; in the test on HL-60(TB) leukemia, 40.9 µM; in the test with RXF 393 renal, 26.6 µM; in the test on COLO 205 colon, 26.8 µM; with 786-0 renal, 29.7 µM; with U251 CNS, 30.1 µM. Besides, the TGI with OVCAR-4 ovarian was determined as 45.3 µM; in the test on UACC-62 melanoma it was 26 µM; with CCRF-CEM leukemia, 40.9 µM.

In the case of `CC(NC1=NCCO1)c1ccccc1Cl` (stereo unspecified), the TGI with EKVX NSCLC, with HL-60(TB) leukemia, in the test with RXF 393 renal, with COLO 205 colon, in the test with 786-0 renal and in the test with NCI/ADR-RES ovarian was above 100 µM in each case. The TGI in the test on U251 CNS, in the test on OVCAR-4 ovarian, with UACC-62 melanoma, in the test with A498 renal, in the test on MDA-MB-435 and in the test with CCRF-CEM leukemia was above 100 µM each time.

As to `COc1ccc(N2C(=O)C3CC(c4ccc(Br)cc4)c4c([nH]c5ccccc45)C3C2=O)cc1` (stereo unspecified), the TGI in the test on EKVX NSCLC is 42.7 µM; with HL-60(TB) leukemia, above 100 µM; with COLO 205 colon it was 34.8 µM; in the test with 786-0 renal, 4.45 µM; in the test with OVCAR-4 ovarian, 9.29 µM; with UACC-62 melanoma it was 32.3 µM. In addition, the values for the TGI in the test with A498 renal and with CCRF-CEM leukemia were 22.3 µM and above 100 µM, respectively.

`CC(=O)OCc1c(O)c2c([nH]c1=O)CCc1ccccc1-2`: the TGI in the test with EKVX NSCLC was above 350 µM; in the test on HL-60(TB) leukemia it was 210 µM; in the test on RXF 393 renal, 105 µM; in the test with COLO 205 colon, 112 µM; in the test on 786-0 renal, 115 µM; in the test on U251 CNS, above 350 µM. The results for the TGI with UACC-62 melanoma and in the test with CCRF-CEM leukemia were 119 µM and 297 µM, respectively.

Turning to `O=C1C(Cl)=C(Cl)C(=O)C(CCNc2nccs2)=C1Cl`, the TGI in the test on EKVX NSCLC was 60.4 µM; in the test with HL-60(TB) leukemia, above 100 µM; in the test with RXF 393 renal, 46.2 µM; with COLO 205 colon, above 100 µM; in the test with 786-0 renal, 45 µM; in the test with NCI/ADR-RES ovarian, 58.7 µM. Further, the TGI in the test with U251 CNS was above 100 µM; in the test on OVCAR-4 ovarian, above 100 µM; in the test with UACC-62 melanoma it was 63.6 µM; in the test on MDA-MB-435, 42 µM; with CCRF-CEM leukemia, above 100 µM.

Consider `CCCCN(CC)C(=O)C(=O)Cc1nc2ccc(C(=O)c3ccccc3)cc2[nH]c1=O`, for which the TGI in the test with EKVX NSCLC is above 100 µM; in the test on HL-60(TB) leukemia, above 31.6 µM; in the test on RXF 393 renal, 92 µM; in the test on COLO 205 colon, above 100 µM; in the test with 786-0 renal, above 100 µM; with U251 CNS it was above 100 µM. In addition, the TGI is above 100 µM in the test with OVCAR-4 ovarian, above 100 µM with UACC-62 melanoma, above 100 µM in the test on A498 renal and above 31.6 µM in the test on CCRF-CEM leukemia.

Turning to `Fc1cc(C2=Nn3c(COc4ccccc4Cl)nnc3S/C2=C\c2ccc(Cl)cc2)c(Cl)cc1Cl`, the TGI in the test with EKVX NSCLC was above 100 µM; in the test on HL-60(TB) leukemia it was 68.4 µM; with RXF 393 renal it was 28 µM; in the test on 786-0 renal, 26.5 µM; with NCI/ADR-RES ovarian, 30.1 µM; with U251 CNS, 80.2 µM. Further, the TGI with OVCAR-4 ovarian is 35.9 µM; in the test with A498 renal, 29.7 µM; with MDA-MB-435, 6.3 µM; with CCRF-CEM leukemia, above 100 µM.

With `CC(C)(C)C1=C(Br)C(F)(C(C)(C)C)OP1(=O)c1ccccc1` (stereo unspecified), the TGI was 33.6 µM in the test on EKVX NSCLC; 16.2 µM with HL-60(TB) leukemia; 24.5 µM in the test on RXF 393 renal; 29.4 µM in the test on COLO 205 colon; 29.6 µM in the test on 786-0 renal; 30.8 µM in the test on NCI/ADR-RES ovarian. Also, the TGI with U251 CNS was 31.3 µM; in the test on OVCAR-4 ovarian, 23 µM; in the test on UACC-62 melanoma it was 29.3 µM; in the test on A498 renal, 40 µM; in the test with MDA-MB-435, 29.9 µM.

Consider `CCOC(=O)C(NC(=O)c1cccc(Cl)c1)(Nc1ccc(S(=O)(=O)Nc2cc(C)on2)cc1)C(F)(F)F` (stereo unspecified), for which the TGI with EKVX NSCLC, in the test on HL-60(TB) leukemia, in the test with RXF 393 renal, in the test on COLO 205 colon, with 786-0 renal and in the test with NCI/ADR-RES ovarian was above 100 µM each time. The TGI in the test on U251 CNS, in the test with OVCAR-4 ovarian, with A498 renal, with MDA-MB-435 and with CCRF-CEM leukemia was above 100 µM in each case.

For the compound `COC(=O)c1cc2c(c(C(=O)OC)c1)CCC2`, the TGI with EKVX NSCLC, in the test on HL-60(TB) leukemia, with RXF 393 renal, in the test on 786-0 renal, in the test with NCI/ADR-RES ovarian and with U251 CNS was above 100 µM in each case. Further, the TGI with OVCAR-4 ovarian, in the test on A498 renal, in the test with MDA-MB-435 and in the test with CCRF-CEM leukemia was above 100 µM in each case.
